Source: patent US9943518B2, “Inhibitors of phosphodiesterase type 5A for reducing skeletal muscle fatigue, edema, and damage in a patient having muscle fatigue due to increased age or exercise” (University of Iowa Research Foundation, priority 2008, dated 2018)
Entries after “also recorded” stand apart in the source; their conditions may differ.

Key:
wild-type mice [1] = assay: Exercise-activity assay in wild-type mice; format: in vivo, mouse
wild-type mice [2] = details: Kinugawa et al. 2005; cited from earlier work
mammals = details: Barbato et al. 2005; cited from earlier work
rats = details: Wang et al. 2001; cited from earlier work
[3] = tested on: dystrophic or nNOS-null mice; assay: Exercise-activity assay in dystrophic or nNOS-null mice; format: in vivo, mouse
wild-type and mdx mice = details: Thomas et al. 1998; cited from earlier work
mdx mice = assay: Exercise-activity assay (mild treadmill exercise, then open-field activity chamber) in mdx mice; format: in vivo, mouse; details: treatment before mild treadmill exercise
human forearm = details: local intra-arterial infusion, Seddon et al. 2008; cited from earlier work
[4] = tested on: DGC models of muscular dystrophy; assay: Exercise/activity assay in DGC models of muscular dystrophy; format: in vivo, mouse; details: administration prior to exercise
PDE5A = PDE5A (Homo sapiens, UniProt O76074); assay: PDE5A inhibition; format: biochemical; details: at plasma concentration from 300 mg/kg/day
[5] = tested on: DGC models of muscular dystrophy; assay: Evans Blue Dye uptake in muscle following exercise; format: in vivo, mouse; details: mice subjected to eccentric contractions
nNOS-null mice = assay: Exercise/activity assay in nNOS-null mice; format: in vivo, mouse; details: administration prior to exercise
[6] = tested on: DGC models of muscular dystrophy; assay: Serum creatine kinase following exercise; format: in vivo, mouse; details: mice subjected to eccentric contractions, 2 hours post-exercise
Experimental: In the assay, mice are initially placed in an activity cage for thirty minutes, and different activity measurements are measured and monitored during this time frame. The mice are then bled to measure serum creatine kinase (CK) levels and then the mice are injected with Evans Blue Dye. […]. Twenty-four hours later, the mice are then subject to a ten minute exercise protocol on a treadmill with a fifteen degree downhill incline at fifteen meters per minute. Following the exercise protocol, the mice are placed back in the activity cage, and post-exercise activity is measured for thirty minutes. […]
The pharmacological screen utilizes an exercise-activity assay to identify compounds that facilitate NO signaling in muscle having mislocalized nNOS. In the assay, mice are initially placed in an activity cage for thirty minutes to measure pre-exercise activity, and different activity measurements are measured and monitored during this time frame. […] Following the exercise protocol, the mice are placed back in the activity cage, and post-exercise activity is measured for thirty minutes. […]
Serum Creatine Kinase Assays. Blood for quantitative, kinetic determination of serum creatine kinase activity was collected either after the pre-exercise activity analysis or 2 hours post-exercise by mouse tail vein bleeds, using a Sarstedt microvette CB 300, from non-anesthetized restrained mice. […]

wild-type mice [7] = details: Miki et al. 2002; cited from earlier work

## sarafotoxin 6c
wild-type mice [1]
  post-exercise activity: caused post-exercise inactivity

## NC(=NCCC[C@H](N)C(=O)O)N[N+](=O)[O-] [L-NNA]
wild-type mice [2]
  exercise-induced hyperemia and exercise capacity: prevents adequate exercise-induced hyperemia and limits exercise capacity during exhaustive treadmill running

## O=C(NCCO[N+](=O)[O-])c1cccnc1 [nicorandil]
mammals
  blood pressure: significantly reducing blood pressure in mammals

## COC(=O)[C@@H](N)CCCNC(=N)N[N+](=O)[O-] [L-NAME]
rats
  walking speed: severely reduces walking speed
[3]
  post-exercise activity: reduced the activity post-exercise even more
wild-type mice [1]
  post-exercise activity: reduced post-exercise activity to levels similar to those in nNOS-null mice post-exercise
wild-type and mdx mice
  femoral blood flow velocity and vascular conductance: decreases femoral blood flow velocity and vascular conductance
  mean arterial pressure: increases mean arterial pressure

## O=[N+]([O-])c1cccc2c(Br)n[nH]c12 [3-bromo-7-nitroindazole]
wild-type mice [1]
  post-exercise activity: caused post-exercise inactivity

## CN1CC(=O)N2[C@H](c3ccc4c(c3)OCO4)c3[nH]c4ccccc4c3C[C@@H]2C1=O [tadalafil]
Mdx mice
  post-exercise activity / exaggerated fatigue response to mild exercise: very effective at preventing the exercise-induced fatigue

## CC(C)Cc1ccc(C(C)C(=O)O)cc1 (stereo not shown) [ibuprofen]
Mdx mice
  post-exercise activity / exaggerated fatigue response to mild exercise: neither treatment resulted in improved post-exercise activity

## CC(=O)OCC(=O)[C@@]12N=C(C)O[C@@H]1C[C@H]1[C@@H]3CCC4=CC(=O)C=C[C@]4(C)[C@H]3[C@@H](O)C[C@@]12C [deflazacort]
Mdx mice
  post-exercise activity / exaggerated fatigue response to mild exercise: neither treatment resulted in improved post-exercise activity; also recorded: did not ameliorate inactivity post-exercise

## CNC(=N)NCCC[C@H](N)C(=O)O [L-NMMA]
Human forearm
  resting blood flow: reduces resting blood flow

## superoxide dismutase
Mdx mice
  post-exercise activity / exaggerated fatigue response to mild exercise: neither method of SOD exposure had an effect on the exaggerated fatigue response

## CCCc1nn(C)c2c(=O)nc(-c3cc(S(=O)(=O)N4CCN(C)CC4)ccc3OCC)[nH]c12 [sildenafil, 5-[2-ethoxy-5-(4-methylpiperazin-1-yl)sulfonylphenyl]-1-methyl-3-propyl-4H-pyrazolo[5,4-e]pyrimidin-7-one]
[4]
  post-exercise activity: very effective at preventing the loss of activity following exercise; also recorded: dramatically increased post-exercise activity
PDE5A
  enzyme activity inhibited: more than 50%
[5]
  Evans Blue Dye uptake in muscle following exercise: prevent an increase in serum CK and Evans Blue Dye uptake in muscle following exercise
nNOS-null mice
  post-exercise activity: dramatically increased post-exercise activity
[6]
  serum CK following exercise: prevent an increase in serum CK
Mdx mice
  post-exercise activity / exaggerated fatigue response to mild exercise: very effective at preventing the exercise-induced fatigue

## CC1(C)CC(O)CC(C)(C)N1[O] [Tempol]
Mdx mice
  post-exercise activity / exaggerated fatigue response to mild exercise: had no effect on the exaggerated fatigue response

## CC(N/C(=N\C#N)Nc1ccncc1)C(C)(C)C (stereo not shown) [pinacidil]
wild-type mice [7]
  mean arterial pressure: decreases mean arterial pressure
